# Measurements as given in patent US10213415B2, “Compounds as opioid receptor modulators” (JANSSEN PHARMACEUTICA NV, priority 2004, dated 2019).
# Tests used:
# [1] = molecular target: T1, human delta subtype 2 opioid receptor (Homo sapiens, UniProt P41143); assay: Human Delta Opioid Receptor Binding Assay (CHO membranes, 3H-Naltrindole); conditions: read-out: hKi δ
# T1 construct: purchased Perkin Elmer RBHODM400UA; host or cells: Chinese Hamster Ovary cells (recombinant expression)
# Experimental: This assay is designed to test the ability of a compound to interfere with the binding of tritiated Naltrindole to the human delta subtype 2 opioid receptor. Membranes from Chinese Hamster Ovary cells expressing the human delta subtype 2 opioid receptor (Perkin Elmer #RBHODM400UA) are homogenized in assay buffer (50 mM Tris, pH 7.5 with 5 mM MgCl2) using a glass tissue grinder, Teflon pestle and a Steadfast Stirrer (Fisher Scientific). The concentration of membranes is adjusted to 100 μg/mL in assay buffer and 100 μL is dispensed into each well of the assay plate, a 96 well round bottom polypropylene plate. Compounds to be tested are solubilized in DMSO (Pierce), 10 mM, then diluted in assay buffer to 6× the desired final concentration. The ligand, ^3H-Naltrindole (Perkin Elmer #NET-1065) is also diluted in assay buffer to 6 nM. In a second 96 well round bottom polypropylene plate, known as the premix plate, 60 μL of the 6× compound is combined with 60 μL of 6 nM ^3H-Naltrindole. From this premix plate 50 μL is transferred to the assay plate containing the membranes, in duplicate. The assay plate is incubated for 30 min at room temperature. A GF/C 96 well filter plate (Perkin Elmer #6005174) is pretreated with 0.3% polyethylenimine for 30 min. The contents of the assay plate are filtered through the filter plate using a Packard Filtermate Harvester, and washed 3 times with 0.9% saline that is 4° C. The filter plate is dried, the underside sealed, and 30 μL Microscint20 (Packard #6013621) added to each well. A Topcount-NXT Microplate Scintillation Counter (Packard) is used to measure emitted energies in the range of 2.9 to 35 KeV. Results are compared to maximum binding, wells receiving no inhibitors. Nonspecific binding is determined in the presence of 1 μM unlabelled Naltrindole (Sigma #N115).
# human mu opioid receptor = molecular target: T2, human mu opioid receptor (Homo sapiens, UniProt P35372); assay: Human Mu Opioid Receptor Binding Assay (CHO membranes, 3H-Damgo); conditions: read-out: hKi μ
# T2 construct: purchased Perkin Elmer RBHOMM400UA; host or cells: Chinese Hamster Ovary cells (recombinant expression)
# Experimental: Membranes from Chinese Hamster Ovary cells expressing the human […] opioid receptor (Perkin Elmer #RBHOMM400UA) are homogenized in assay buffer (50 mM Tris, pH 7.5 with 5 mM MgCl2) using a glass tissue grinder, Teflon pestle and a Steadfast Stirrer (Fisher Scientific). The concentration of membranes is adjusted to 300 μg/mL in assay buffer and 100 μL is dispensed into each well of the assay plate, a 96 well round bottom polypropylene plate. Compounds to be tested are solubilized in DMSO (Pierce), 10 mM, then diluted in assay buffer to 6× the desired final concentration. The ligand, ^3H-Damgo (Perkin Elmer #NET-902) is also diluted in assay buffer to 3.6 nM. In a second 96 well round bottom polypropylene plate, known as the premix plate, 60 μL of the 6× compound is combined with 60 μL of 3.6 nM ^3H-Damgo. From this premix plate 50 μL is transferred to the assay plate containing the membranes, in duplicate. The assay plate is incubated for 2 h at room temperature. A GF/C 96 well filter plate (Perkin Elmer #6005174) is pretreated with 0.3% polyethylenimine for 30 min. The contents of the assay plate are filtered through the filter plate using a Packard Filtermate Harvester, and washed 3 times with 0.9% saline that is 4° C. The filter plate is dried, the underside sealed, and 30 μL Microscint20 (Packard #6013621) added to each well. A Topcount-NXT Microplate Scintillation Counter (Packard) is used to measure emitted energies in the range of 2.9 to 35 KeV. […] Nonspecific binding is determined in the presence of 1 μM unlabelled Damgo (Tocris #1171).
# [2] = molecular target: T3, mu opioid receptor (CHO-hMOR cell membranes) (Homo sapiens, UniProt P35372); assay: Mu Opioid Receptor Functional Assay: [35S]GTPγS Binding in CHO-hMOR Cell Membranes, Versions 1 and 2; format: biochemical; conditions: for MOR GTP binding assay_v2 (% I): version 2, % inhibition of agonist-stimulated GTPγS binding; for EC50: version 2, read-out: MOR GTP binding assay v2 EC50
# T3 construct: purchased Receptor Biology, Inc. (Baltimore, Md.); host or cells: CHO cells (recombinant expression)
# Experimental: CHO-hMOR cell membranes were purchased from Receptor Biology, Inc. (Baltimore, Md.). About 10 mg/ml of membrane protein was suspended in 10 mM TRIS-HCl pH 7.2, 2 mM EDTA, 10% sucrose, and the suspension kept on ice. One ml of membranes was added to 15 ml cold binding assay buffer containing 50 mM HEPES, pH 7.6, 5 mM MgCl2, 100 mM NaCl, 1 mM DTT and 1 mM EDTA. The membrane suspension was homogenized with a Polytron and centrifuged at 3,000 rpm for 10 min. The supernatant was then centrifuged at 18,000 rpm for 20 min. The pellet was resuspended in 10 ml assay buffer with a Polytron.
# The membranes were preincubated with wheat germ agglutinin coated SPA beads (Amersham) at 25° C. for 45 min in the assay buffer. The SPA bead (5 mg/ml) coupled membranes (10 μg/ml) were then incubated with 0.5 nM [^35S]GTPγS in the assay buffer. […] A range of concentrations of receptor agonists was used to stimulate [^35S]GTPγS binding. Both basal and non-specific binding was tested in the absence of agonist; non-specific binding determination included 10 μM unlabeled GTPγS.
# Compounds were tested for function as antagonists by evaluating their potential to inhibit agonist-stimulated GTPγS binding. Radioactivity was quantified on a Packard TopCount. The following parameters were calculated:
# [formula] % Inhibition=(% stimulation by 1 μM SNC80−% stimulation by 1 μM SNC80 in presence of test compound)×100/(% Stimulation by 1 μM SNC80−100)
# EC50 values were calculated using GraphPad Prism.
# T2 sequence (P35372 whole entry): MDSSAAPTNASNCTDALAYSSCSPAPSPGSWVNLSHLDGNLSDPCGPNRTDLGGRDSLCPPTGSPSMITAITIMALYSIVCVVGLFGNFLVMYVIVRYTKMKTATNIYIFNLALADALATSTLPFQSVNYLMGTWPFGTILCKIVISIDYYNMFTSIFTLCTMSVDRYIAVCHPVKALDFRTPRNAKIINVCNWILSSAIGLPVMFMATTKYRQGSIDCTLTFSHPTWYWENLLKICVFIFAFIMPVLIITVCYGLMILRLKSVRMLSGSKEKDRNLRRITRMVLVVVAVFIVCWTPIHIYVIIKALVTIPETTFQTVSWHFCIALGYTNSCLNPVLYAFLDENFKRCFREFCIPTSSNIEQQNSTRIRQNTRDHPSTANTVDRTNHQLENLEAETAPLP
# T3 sequence (P35372 whole entry): as above
# T1 sequence (P41143 whole entry): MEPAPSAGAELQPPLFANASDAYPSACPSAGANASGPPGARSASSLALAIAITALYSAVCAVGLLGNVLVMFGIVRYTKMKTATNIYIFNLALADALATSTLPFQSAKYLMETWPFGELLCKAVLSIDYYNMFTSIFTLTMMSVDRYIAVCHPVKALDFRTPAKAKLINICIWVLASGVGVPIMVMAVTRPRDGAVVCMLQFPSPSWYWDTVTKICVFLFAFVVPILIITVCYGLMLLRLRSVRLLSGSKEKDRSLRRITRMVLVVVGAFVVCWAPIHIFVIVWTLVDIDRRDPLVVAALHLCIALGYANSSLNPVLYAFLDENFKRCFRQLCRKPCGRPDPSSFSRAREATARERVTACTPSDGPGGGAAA
SMILES,Ki [1] [nM],Ki (human mu opioid receptor) [nM],MOR GTP binding assay_v2 (% I) [2] [%],EC50 [2] [nM]
Cc1[nH]c(CN(C(=O)[C@@H](N)Cc2ccc(O)cc2)C(C)C)nc1-c1cccnc1 [Cpd 153],> 10000,–,–,–
Cc1cc(O)cc(C)c1C[C@H](N)C(=O)N(Cc1ccc(N(C)C)cc1)[C@@H](C)c1nc(-c2ccccc2)cn1C [Cpd 77],13.5,1.8,–,–
Cc1cc(O)cc(C)c1C[C@H](N)C(=O)N(Cc1nc(-c2cccc(-c3ccccc3)c2)c(C)[nH]1)C(C)C [Cpd 134],463,121,–,–
Cc1cc(O)cc(C)c1C[C@H](N)C(=O)N(Cc1nc(-c2ccc(F)cc2F)c(C)[nH]1)C(C)C [Cpd 71],102,0.57,–,–
Cc1cc(O)cc(C)c1C[C@H](N)C(=O)N(Cc1nc(-c2cc(F)cc(F)c2)c(C)[nH]1)C(C)C [Cpd 126],164,7.8,–,–
COc1ccc(CN(C(=O)[C@@H](N)Cc2c(C)cc(C(N)=O)cc2C)[C@@H](C)c2nc(-c3ccccc3)c[nH]2)cc1-c1nnn(C(C)(C)C)n1 [Cpd 309],–,–,47.00,23
Cc1cc(C(N)=O)cc(C)c1C[C@H](N)C(=O)N(CCc1ccccc1)[C@@H](C)c1nc(-c2ccccc2)c[nH]1 [Cpd 109],77,8.2,–,–
CC(C)[C@@H](c1nc(-c2ccccc2)c[nH]1)N(C(=O)[C@@H](N)Cc1ccc(O)cc1)C(C)C [Cpd 161],> 10000,> 1000,–,–
Cc1cc(O)cc(C)c1C[C@H](N)C(=O)N(C(C)C)[C@@H](C)c1nc(-c2ccc(F)cc2)c[nH]1 [Cpd 84],9.6,1.1,–,–
Cc1cc(O)cc(C)c1C[C@H](N)C(=O)N(Cc1ccccc1)[C@H](c1nc(-c2ccccc2)c[nH]1)C(C)C [Cpd 106],279,150,–,–
Cc1cc(O)cc(C)c1C[C@H](N)C(=O)N(Cc1cccc(Oc2ccccc2)c1)[C@@H](C)c1nc(-c2ccccc2)c[nH]1 [Cpd 98],54,48,–,–
Cc1cc(O)cc(C)c1C[C@H](N)C(=O)N(Cc1cccc2ccccc12)[C@@H](C)c1nc(-c2ccccc2)c[nH]1 [Cpd 99],19.3,16,–,–
Cc1cc(C(N)=O)cc(C)c1C[C@H](N)C(=O)N(Cc1ccccc1)[C@@H](C)c1nc(-c2ccc(F)cc2)c[nH]1 [Cpd 76],43.1,1.6,–,–
Cc1cc(O)cc(C)c1C[C@H](N)C(=O)N(C(C)C)[C@H](CO)c1nc(-c2ccccc2)c[nH]1 [Cpd 63],473,58,–,–
Cc1cc(C(N)=O)cc(C)c1C[C@H](N)C(=O)N(CCCc1ccccc1)[C@@H](C)c1nc(-c2ccccc2)c[nH]1 [Cpd 108],43.3,23.5,–,–
Cc1cc(O)cc(C)c1C[C@H](N)C(=O)N(Cc1nc(-c2ccc(C(N)=O)cc2)c(C)[nH]1)C(C)C [Cpd 69],272,4.4,–,–
Cc1cc(O)cc(C)c1C[C@H](N)C(=O)N(Cc1cccc(Br)c1)[C@@H](C)c1nc(-c2ccccc2)c[nH]1 [Cpd 101],47,24,–,–
Cc1cc(C(N)=O)cc(C)c1C[C@H](N)C(=O)N(Cc1ccccc1)[C@@H](C)c1nc(-c2ccc(C(F)(F)F)cc2)c(C)[nH]1 [Cpd 74],63,9.8,–,–

SMILES,Ki [1] [nM],Ki (human mu opioid receptor) [nM],MOR GTP binding assay_v2 (% I) [2] [%],EC50 [2] [nM]
Cc1cc(O)cc(C)c1C[C@H](N)C(=O)N(Cc1nc(-c2cc(Cl)cc(Cl)c2)c(C)[nH]1)C(C)C [Cpd 141],252,52,–,–
Cc1cc(O)cc(C)c1C[C@H](N)C(=O)N(Cc1nc(-c2cccc(Cl)c2)c(C)[nH]1)C(C)C [Cpd 70],85,2.6,–,–
Cc1cc(O)cc(C)c1C[C@H](N)C(=O)N(Cc1ccc2ccccc2c1)[C@@H](C)c1nc(-c2ccccc2)c[nH]1 [Cpd 100],88,20,–,–
COc1ccc(-c2nc(CN(C(=O)[C@@H](N)Cc3c(C)cc(O)cc3C)C(C)C)[nH]c2C)cc1 [Cpd 125],237,8.6,–,–
Cc1cc(O)cc(C)c1C[C@H](N)C(=O)N(Cc1nc(-c2ccc(S(C)(=O)=O)cc2)c(C)[nH]1)C(C)C [Cpd 62],69,2.4,–,–
Cc1cc(O)cc(C)c1C[C@H](N)C(=O)N(Cc1nc(-c2cccc(C(=O)N(C)C)c2)c(C)[nH]1)C(C)C [Cpd 67],438,4.5,–,–
Cc1cc(O)cc(C)c1C[C@H](N)C(=O)N(C(C)C)[C@@H](COCc1ccccc1)c1nc(-c2ccccc2)c[nH]1 [Cpd 138],1180,104,–,–
Cc1cc(C(N)=O)cc(C)c1C[C@H](N)C(=O)N(CCc1ccccc1)[C@H](C)c1nc(-c2ccccc2)c[nH]1 [Cpd 110],1400,191,–,–
COc1ccccc1CN(C(=O)[C@@H](N)Cc1c(C)cc(O)cc1C)[C@@H](C)c1nc(-c2ccccc2)c[nH]1 [Cpd 96],14.6,9.7,–,–
Cc1cc(O)cc(C)c1C[C@H](N)C(=O)N(C(C)C)[C@@H](Cc1cccc(CN)c1)c1nc(-c2ccccc2)c[nH]1 [Cpd 120],740,20.8,–,–
CC(C)N(C(=O)[C@@H](N)Cc1cccc(C(N)=O)c1)[C@@H](Cc1ccccc1)c1nc(-c2ccccc2)c[nH]1 [Cpd 136],1610,726,–,–
COc1cccc(-c2nc(CN(C(=O)[C@@H](N)Cc3c(C)cc(O)cc3C)C(C)C)[nH]c2C)c1 [Cpd 142],454,8.2,–,–
Cc1cc(O)cc(C)c1C[C@H](N)C(=O)N(Cc1nc(-c2cccc(F)c2)c(C)[nH]1)C(C)C [Cpd 116],30.3,0.54,–,–
Cc1[nH]c(CN(C(=O)[C@@H](N)Cc2ccc(O)cc2)C(C)C)nc1-c1ccsc1 [Cpd 152],> 10000,–,–,–
COC(=O)c1ccnc(CN(C(=O)[C@@H](N)Cc2c(C)cc(C(N)=O)cc2C)[C@@H](C)c2nc(-c3ccccc3)c[nH]2)c1 [Cpd 312],–,–,35.00,58.7
Cc1cc(O)cc(C)c1C[C@H](N)C(=O)N(Cc1nc(-c2ccccc2-c2ccccc2)c(C)[nH]1)C(C)C [Cpd 145],267,–,–,–
Cc1cc(C(N)=O)cc(C)c1C[C@H](N)C(=O)N(Cc1ccnc(C(=O)O)c1)[C@@H](C)c1nc(-c2ccccc2)c[nH]1 [Cpd 316],–,–,76,24.1
COC(=O)N[C@@H](Cc1c(C)cc(C(N)=O)cc1C)C(=O)N(Cc1ccc(OC)c(C(=O)OC)c1)[C@@H](C)c1nc(-c2ccccc2)c[nH]1 [Cpd 310],–,–,51.00,3920
